Results published in ChEMBL document CHEMBL3045769, “Strategy for generation of new TACE inhibitors: pharmacophore and counter pharmacophore modeling to remove non-selective hits” (Med Chem Res, 2011).

Target: Disintegrin and metalloproteinase domain-containing protein 17 (Homo sapiens, UniProt P78536)
Assay: Inhibition of TACE (unknown origin) using fluorogenic LAQAVRSSSR peptide as a substrate by fluorometric assay

Disintegrin and metalloproteinase domain-containing protein 17, sequence (P78536 whole entry, the tested form may be a part): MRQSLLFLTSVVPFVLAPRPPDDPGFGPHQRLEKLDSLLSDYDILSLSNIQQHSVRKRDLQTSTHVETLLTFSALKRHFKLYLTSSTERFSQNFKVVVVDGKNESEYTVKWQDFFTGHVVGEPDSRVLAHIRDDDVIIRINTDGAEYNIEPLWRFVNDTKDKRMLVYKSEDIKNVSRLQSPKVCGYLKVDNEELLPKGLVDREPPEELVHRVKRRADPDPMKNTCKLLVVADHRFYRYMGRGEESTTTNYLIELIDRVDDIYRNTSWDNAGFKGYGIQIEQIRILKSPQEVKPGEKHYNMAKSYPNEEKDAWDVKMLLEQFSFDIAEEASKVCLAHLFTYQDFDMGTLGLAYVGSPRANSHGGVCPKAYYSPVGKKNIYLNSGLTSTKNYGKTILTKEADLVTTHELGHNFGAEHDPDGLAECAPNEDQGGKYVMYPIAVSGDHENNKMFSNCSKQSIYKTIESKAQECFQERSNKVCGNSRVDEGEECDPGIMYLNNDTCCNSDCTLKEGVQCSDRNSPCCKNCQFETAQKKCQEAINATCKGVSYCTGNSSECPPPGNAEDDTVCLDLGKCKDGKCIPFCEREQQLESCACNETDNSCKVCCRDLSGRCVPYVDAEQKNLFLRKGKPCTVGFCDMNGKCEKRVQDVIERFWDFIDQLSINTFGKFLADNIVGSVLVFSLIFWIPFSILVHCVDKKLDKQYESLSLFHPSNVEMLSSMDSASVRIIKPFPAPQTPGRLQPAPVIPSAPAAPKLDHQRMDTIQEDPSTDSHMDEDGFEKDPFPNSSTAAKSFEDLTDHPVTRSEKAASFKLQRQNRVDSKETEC

Row | SMILES | IC50 [nM]
1 | CC#CCOc1ccc(S(=O)(=O)NC(C)C(=O)NO)cc1 (configuration not stated) | 4
2 | CNC(=O)[C@H](Cc1cccc2c1CCCC2)NC(=O)[C@H](CC(C)C)[C@H](C)C(=O)NO | 0.3
